Experimental data: PubChem BioAssay (NCI)
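Growth conditions: 96-well plates. Treatment: test compound, 48 hours, 5 concentrations. Analysis: linear interpolation between bracketing concentrations; unreached endpoints set to highest concentration. Here, GI50 denotes the concentration required for 50% inhibition of growth. TGI marks complete inhibition of growth.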

Tested on: SK-OV-3 ovarian
Test: NCI tumour cell line growth inhibition, 48 h

Compound	TGI
COC1OC2COC(C)(C)OC2C2OC(C)(C)OC12 (stereo not drawn)	> 100 µM
CCNC(=S)N/N=C/c1ccccn1	> 100 µM
COc1ccc(CCCCl)c(C2=NCCc3ccccc32)c1	> 100 µM
O=C1NN=C(c2c[nH]c3ccccc23)CC1NCc1ccccc1 (stereo not drawn)	> 100 µM
O=C(CN=C(CN(c1ccccc1)c1ccccc1)Oc1c(Cl)cc(Cl)cc1Cl)n1cnc2ccccc21	> 100 µM
C=C1CC=CC(C)(C)C1C/C=C(\C)C(O)CBr (stereo not drawn)	> 100 µM
O=C(NCCCNCCCCNCCCNC(=O)C(F)(F)F)C(F)(F)F	> 100 µM
O=C(O)c1cc2ccccc2c(S(=O)(=O)O)c1O	> 100 µM
CCOC(=O)c1[nH]c2nc(SC)nc(NC)c2c1N	> 100 µM
Cc1cccc(NC(Nc2cccc(C)c2)=C(C(Cl)=C(Cl)Cl)[N+](=O)[O-])c1	> 100 µM
C/C(=N\Nc1nc2ccccc2s1)c1cccnn1	52.3 µM
FC(F)=C(c1ccc(-c2ccc(Cl)cc2)cc1)C(F)(F)F	41.2 µM
Nc1n[nH]c2ccccc12	> 100 µM
COC(=O)[C@H]1C=C[C@H](OC2OC(COC(C)=O)C(OC(C)=O)C(OC(C)=O)C2OC(C)=O)n2c(=O)n(-c3ccccc3)c(=O)n21 (stereo partly drawn)	32.6 µM

Tested on: DU-145 prostate
Test: NCI tumour cell line growth inhibition, 48 h

Compound	TGI	GI50
COc1cc2c(cc1O)CC[n+]1cc3c(OC)c(OC)ccc3cc1-2	> 100 µM	
CC[P+](C#Cc1ccccc1)(c1ccccc1)c1ccccc1	10.4 µM	
Cc1ccc(C(=O)c2[nH]c(Nc3cc(C)ccn3)c(C(=S)Nc3ccccc3)c2N)cc1	> 100 µM	
CC(C)Cc1c(C#N)c(C#N)c(N)n1Cc1ccccc1	> 100 µM	
NS(=O)(=O)c1nnc(NSc2ccc([N+](=O)[O-])cc2)s1	> 100 µM	
Nc1nc(Nc2ccc(OCc3cccc(F)c3)cc2)c2c(n1)[nH]c1ccc(O)cc12	15.6 µM	4.22 µM
CC1=NC(C)(C)N(O)C1(C)C	> 100 µM	
O=c1oc2ccccc2c2nc3ccccc3cc12	> 100 µM	
Clc1cccc(C2ON=C(c3ccccc3)N2C23CC4CC(CC(C4)C2)C3)c1Cl (stereo not drawn)	> 10 µM	
CCN(CC(=O)O)CC(=O)O	> 100 µM	
Cc1cc(C)nc(NS(=O)(=O)c2ccc(Nc3c4ccccc4nc4c(C(=O)NCCO)cccc34)cc2)n1	> 100 µM	
CC(C)(C)c1ccc2c(c1)OCc1n[nH]c(n1)COc1cc(C(C)(C)C)ccc1OCCOCCO2	20.6 µM	
COC1OC2COC(C)(C)OC2C2OC(C)(C)OC12 (stereo not drawn)	> 100 µM	
CCNC(=S)N/N=C/c1ccccn1	58.5 µM	
COc1ccc(CCCCl)c(C2=NCCc3ccccc32)c1	> 100 µM	
O=C1NN=C(c2c[nH]c3ccccc23)CC1NCc1ccccc1 (stereo not drawn)	> 100 µM	
O=C(CN=C(CN(c1ccccc1)c1ccccc1)Oc1c(Cl)cc(Cl)cc1Cl)n1cnc2ccccc21	> 100 µM	
C=C1CC=CC(C)(C)C1C/C=C(\C)C(O)CBr (stereo not drawn)	> 100 µM	
O=C(NCCCNCCCCNCCCNC(=O)C(F)(F)F)C(F)(F)F	> 100 µM	
O=C(O)c1cc2ccccc2c(S(=O)(=O)O)c1O	> 100 µM	
CCOC(=O)c1[nH]c2nc(SC)nc(NC)c2c1N	> 100 µM	
Cc1cccc(NC(Nc2cccc(C)c2)=C(C(Cl)=C(Cl)Cl)[N+](=O)[O-])c1	> 57.5 µM	
C/C(=N\Nc1nc2ccccc2s1)c1cccnn1	> 100 µM	
FC(F)=C(c1ccc(-c2ccc(Cl)cc2)cc1)C(F)(F)F	34.6 µM	
Nc1n[nH]c2ccccc12	> 100 µM	
COC(=O)[C@H]1C=C[C@H](OC2OC(COC(C)=O)C(OC(C)=O)C(OC(C)=O)C2OC(C)=O)n2c(=O)n(-c3ccccc3)c(=O)n21 (stereo partly drawn)	21.1 µM	

Tested on: A549 NSCLC
Test: NCI tumour cell line growth inhibition, 48 h

Compound	TGI	GI50
COc1cc2c(cc1O)CC[n+]1cc3c(OC)c(OC)ccc3cc1-2	> 100 µM	
CC[P+](C#Cc1ccccc1)(c1ccccc1)c1ccccc1	14.8 µM	
Cc1ccc(C(=O)c2[nH]c(Nc3cc(C)ccn3)c(C(=S)Nc3ccccc3)c2N)cc1	> 100 µM	
CC(C)Cc1c(C#N)c(C#N)c(N)n1Cc1ccccc1	> 100 µM	
NS(=O)(=O)c1nnc(NSc2ccc([N+](=O)[O-])cc2)s1	> 100 µM	
Nc1nc(Nc2ccc(OCc3cccc(F)c3)cc2)c2c(n1)[nH]c1ccc(O)cc12	17.8 µM	4.13 µM
CC1=NC(C)(C)N(O)C1(C)C	> 100 µM	
O=c1oc2ccccc2c2nc3ccccc3cc12	> 100 µM	
Clc1cccc(C2ON=C(c3ccccc3)N2C23CC4CC(CC(C4)C2)C3)c1Cl (stereo not drawn)	> 10 µM	
CCN(CC(=O)O)CC(=O)O	> 100 µM	
Cc1cc(C)nc(NS(=O)(=O)c2ccc(Nc3c4ccccc4nc4c(C(=O)NCCO)cccc34)cc2)n1	> 100 µM	
CC(C)(C)c1ccc2c(c1)OCc1n[nH]c(n1)COc1cc(C(C)(C)C)ccc1OCCOCCO2	14.3 µM	
COC1OC2COC(C)(C)OC2C2OC(C)(C)OC12 (stereo not drawn)	> 100 µM	
CCNC(=S)N/N=C/c1ccccn1	82.1 µM	
COc1ccc(CCCCl)c(C2=NCCc3ccccc32)c1	> 100 µM	
O=C1NN=C(c2c[nH]c3ccccc23)CC1NCc1ccccc1 (stereo not drawn)	> 100 µM	
O=C(CN=C(CN(c1ccccc1)c1ccccc1)Oc1c(Cl)cc(Cl)cc1Cl)n1cnc2ccccc21	> 100 µM	
C=C1CC=CC(C)(C)C1C/C=C(\C)C(O)CBr (stereo not drawn)	> 100 µM	
O=C(NCCCNCCCCNCCCNC(=O)C(F)(F)F)C(F)(F)F	> 100 µM	
O=C(O)c1cc2ccccc2c(S(=O)(=O)O)c1O	> 100 µM	
CCOC(=O)c1[nH]c2nc(SC)nc(NC)c2c1N	> 100 µM	
Cc1cccc(NC(Nc2cccc(C)c2)=C(C(Cl)=C(Cl)Cl)[N+](=O)[O-])c1	> 68 µM	
C/C(=N\Nc1nc2ccccc2s1)c1cccnn1	> 100 µM	
FC(F)=C(c1ccc(-c2ccc(Cl)cc2)cc1)C(F)(F)F	37.4 µM	
Nc1n[nH]c2ccccc12	> 100 µM	
COC(=O)[C@H]1C=C[C@H](OC2OC(COC(C)=O)C(OC(C)=O)C(OC(C)=O)C2OC(C)=O)n2c(=O)n(-c3ccccc3)c(=O)n21 (stereo partly drawn)	35.4 µM	
